According to patent US20070093520A1, “Method of treatment of diarrhea-predominant irritable bowel syndrome in a subject” (priority 2005, published 2007):

Test system: diarrhea-predominant IBS subjects
Assay: 3007 Study: open-label 52-week safety study, adverse events and withdrawals
[1] = Placebo/Cilansetron 2 mg, N=279
[2] = Placebo/Cilansetron 2 mg, N=279, % of appropriate gender
[3] = Placebo/Cilansetron 2 mg, gender-specific

## Cc1nccn1C[C@H]1CCc2c(c3cccc4c3n2CCC4)C1=O [cilansetron, (R)-(−)-4,5,6,8,9,10-hexahydro-10-[(2-methyl-1H-imidazol-1-yl)methyl]-11H-pyrido-[3,2,1-jk]-carbazol-11-one]
[1]
  TEAE leading to permanent discontinuation: Urticaria NOS: 1 (<1%) n (%)
  TEAE leading to permanent discontinuation: Vertigo: 0 n (%)
  TEAE leading to permanent discontinuation: Visual Acuity Reduced: 1 (<1%) n (%)
  TEAE leading to permanent discontinuation: Vomiting NOS: 0 n (%)
  TEAE leading to permanent discontinuation: White Blood Cells Urine Positive: 0 n (%)
  Total Number of Subjects with at Least One TEAE Leading to Discontinuation of Study Medication: 50 (18%) n (%)
[2]
  TEAE leading to permanent discontinuation: Benign Ovarian Tumour*: 1 (<1%) n (%)
  TEAE leading to permanent discontinuation: Breast Cancer NOS*: 2 (1%) n (%)
  TEAE leading to permanent discontinuation: Ovarian Cancer NOS*: 0 n (%)
  TEAE leading to permanent discontinuation: Ovarian Cystadenofibroma*: 1 (<1%) n (%)
  TEAE leading to permanent discontinuation: Pregnancy NOS*: 0 n (%)
[3]
  TEAE: Female Reproductive Tract Infections*: 0 n (%)
  TEAE: Prostate Examination Abnormal*: 0 n (%)
  TEAE: Smear Cervix Abnormal*: 0 n (%)
  TEAE: Vaginal Candidiasis*: 1 (<1%) n (%)
  TEAE: Vaginitis Bacterial NOS*: 0 n (%)
  TEAE: Vaginitis*: 0 n (%)
  TEAE: Vaginosis Fungal NOS*: 1 (<1%) n (%)
Studies 3006 and 3007
  potential complications of constipation: two
Study 3007
  constipation episodes reported as SAEs: None
  constipation that led to dose reduction: seven
  deaths: No deaths
  longest duration of a constipation episode: 189 days
  mean longest duration of a constipation episode: 10.4 days
  median longest duration of a constipation episode: four
  subjects mildly bothered by the constipation: 8%
  subjects moderately bothered by the constipation: 7%
  subjects reporting only one constipation episode: 15%
  subjects with a constipation episode that lasted longer than 30 days: Thirteen
  subjects with an SAE reported as probably related to study medication (colitis ischemic): One
  subjects with treatment-emergent SAEs reported as unlikely related to study medication: five
  treatment-emergent SAE: angina pectoris: two
  treatment-emergent SAE: breast cancer NOS: two
  treatment-emergent SAE: chest pain: two
  treatment-emergent SAEs of cardiac disorders: four
  treatment-emergent rectal hemorrhage: Eight
Study 3007, 2 mg TID over 52 weeks
  overall safety, tolerability and QOL finding: generally safe, well-tolerated, and improved QOL
Study 3007, 18 to 40 years
  TEAE incidence: abdominal pain NOS: 8%
  TEAE incidence: constipation: 19%
  TEAE incidence: flatulence, bloating and distension: 8%
  TEAE incidence: headache NOS: 7%
  TEAE incidence: lower respiratory tract and lung infections: 4%
  TEAE incidence: nausea and vomiting symptoms: 9%
  TEAE incidence: sinusitis NOS: 9%
Study 3007, 41 to 64 years
  TEAE incidence: abdominal pain NOS: 5%
  TEAE incidence: constipation: 23%
  TEAE incidence: flatulence, bloating and distension: 5%
  TEAE incidence: headache NOS: 6%
  TEAE incidence: lower respiratory tract and lung infections: 6%
  TEAE incidence: nausea and vomiting symptoms: 6%
  TEAE incidence: sinusitis NOS: 7%
Study 3007, 65 years or older
  TEAE incidence: abdominal pain NOS: 12%
  TEAE incidence: constipation: 37%
  TEAE incidence: flatulence, bloating and distension: 12%
  TEAE incidence: headache NOS: 1%
  TEAE incidence: lower respiratory tract and lung infections: 1%
  TEAE incidence: nausea and vomiting symptoms: 1%
  TEAE incidence: sinusitis NOS: 3%
Study 3007, C/C
  SAE: Abdominal Pain Upper: 1 (<1%) n (%)
  SAE: Adenomyosis*: 1 (<1%) n (%)
  SAE: Angina Pectoris: 2 (<1%) n (%)
  SAE: Appendicitis: 1 (<1%) n (%)
  SAE: Asthma NOS: 0 n (%)
  SAE: Benign Ovarian Tumour*: 0 n (%)
  SAE: Bladder Prolapse: 0 n (%)
  SAE: Bone Neoplasm Malignant: 1 (<1%) n (%)
  SAE: Breast Cancer NOS*: 0 n (%)
  SAE: Bronchopneumonia NOS: 0 n (%)
  SAE: Calculus Ureteric: 1 (<1%) n (%)
  SAE: Cardiac Disorders: 3 (1%) n (%)
  SAE: Chest Pain: 1 (<1%) n (%)
  SAE: Cholelithiasis: 1 (<1%) n (%)
  SAE: Colitis Ischaemic: 0 n (%)
  SAE: Depression: 0 n (%)
  SAE: Endometriosis*: 1 (<1%) n (%)
  SAE: Fibroma NOS: 0 n (%)
  SAE: Food Allergy: 0 n (%)
  SAE: Gastritis NOS: 1 (<1%) n (%)
  SAE: Gastroenteritis NOS: 1 (<1%) n (%)
  SAE: Gastrointestinal Disorders: 3 (1%) n (%)
  SAE: General Disorders and Administration Site Conditions: 1 (<1%) n (%)
  SAE: Hallucination NOS: 0 n (%)
  SAE: Hallucination, Auditory: 0 n (%)
  SAE: Heat Exhaustion: 1 (<1%) n (%)
